The source of these data is patent publication US20250262186A1 (SANOFI, priority 2022, published 2025).

Structures can show the parent of a compound that is named as a salt.

For this test, the target named is T1, ERα (Homo sapiens, UniProt P03372).
T1 construct: made using a breast cancer cell ERα in cell western assay; host or cells: MCF7
T1 sequence (P03372 1-595): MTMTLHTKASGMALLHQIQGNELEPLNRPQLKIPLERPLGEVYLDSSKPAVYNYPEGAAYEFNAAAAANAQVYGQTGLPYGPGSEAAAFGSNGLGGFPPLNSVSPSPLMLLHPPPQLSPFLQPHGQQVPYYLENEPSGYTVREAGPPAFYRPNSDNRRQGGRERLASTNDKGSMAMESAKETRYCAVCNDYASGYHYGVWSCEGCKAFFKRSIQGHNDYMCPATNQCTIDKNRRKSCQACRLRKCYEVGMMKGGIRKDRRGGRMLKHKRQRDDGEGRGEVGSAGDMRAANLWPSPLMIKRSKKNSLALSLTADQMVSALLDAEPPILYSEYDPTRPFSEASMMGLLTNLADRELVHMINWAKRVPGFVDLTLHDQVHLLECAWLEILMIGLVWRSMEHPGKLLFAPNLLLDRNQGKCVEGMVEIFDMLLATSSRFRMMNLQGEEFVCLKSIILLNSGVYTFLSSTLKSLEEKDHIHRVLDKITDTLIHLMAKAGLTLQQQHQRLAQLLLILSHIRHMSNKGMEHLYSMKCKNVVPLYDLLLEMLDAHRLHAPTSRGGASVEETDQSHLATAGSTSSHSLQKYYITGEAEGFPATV
Description: Estrogen receptor degradation activity: breast cancer cell ERα in cell western assay in MCF7 cells. Format: cell-based. The conditions noted are these: 0.3 μM, 4 hours, relative to fulvestrant 0.1 μM positive control. On the procedure:
Said test involves measuring the in vitro degradation activity of the compounds of the Table 1a.
The measurements of the degradation activities were made using a breast cancer cell ERα in cell western assay as described hereunder.
MCF7 cells (ATCC) were seeded in 384 wells microplate (collagen coated) at a concentration of 10000 cells/30 μL per well in red phenol free MEM alpha medium (invitrogen) containing 5% charcoal dextran striped FBS. The following day, 9 points serial 1:5 dilution of each compound was added to the cells in 2.5 μL at final concentrations ranging from 0.3-0.0000018 μM (in table 2), or 0.1 μM for fulvestrant (using as positive control). At 4 hours post compound addition the cells were fixed by adding 25 μL of formalin (final concentration 5% formalin containing 0.1% triton) for 10 minutes at room temperature and then washed twice with PBS. Then, 50 μL of LI-COR blocking buffer containing 0.1% Triton was added to plate for 30 minutes at room temperature. LI-COR blocking buffer was removed and cells were incubated overnight at cold room with 50 μL anti-ER rabbit monoclonal antibody (Thermo scientific MA1-39540) diluted at 1:1000 in LI-COR blocking buffer containing 0.1% tween-20. Wells which were treated with blocking buffer but no antibody were used as background control. Wells were washed twice with PBS (0.1% tween-20) and incubated at 37° C. for 60 minutes in LI-COR (0.1% tween-20) containing goat anti-rabbit antibody Alexa 488 (1:1000) and Syto-64 a DNA dye (2 μM final concentration). Cells were then washed 3 times in PBS and scanned in ACUMEN explorer (TTP-Labtech). Integrated intensities in the green fluorescence and red fluorescence were measured to determine the levels of ERα and DNA respectively.
The degradation activity with respect to estrogen receptors in this test is given by the concentration which degrades 50% of the estrogen receptor (or IC50) in nM.
The % of ERα levels decrease were determined as follows: % inhibition=100*(1−(sample−fulvestrant: DMSO−fulvestrant)).
Regarding `O=C(O)c1ccc2c(c1)CCCC(c1cccc(F)c1Cl)=C2c1cccc(O[C@@H]2CCN(CCCF)C2)c1` [Compound 9, (R)-8-(2-chloro-3-fluorophenyl)-9-(3-((1-(3-fluoropropyl)pyrrolidin-3-yl)oxy)phenyl)-6,7-dihydro-5H-benzo[7]annulene-3-carboxylic acid], the “% Degradation At 0.3 μM” value amounted to 90%.

For the compound `Cc1c(O[C@@H]2CCN(CCCF)C2)cccc1C1=C(c2ccccc2)CCCc2cc(C(=O)O)ccc21` [Compound 15, (R)-9-(3-((1-(3-fluoropropyl)pyrrolidin-3-yl)oxy)-2-methylphenyl)-8-phenyl-6,7-dihydro-5H-benzo[7]annulene-3-carboxylic acid], the “% Degradation At 0.3 μM” value is 80%.

Consider `O=C(O)c1ccc2c(c1)CCCC(c1ccccc1Cl)=C2c1cc(O[C@@H]2CCN(CCCF)C2)ccc1F` [Compound 26, (R)-8-(2-chlorophenyl)-9-(2-fluoro-5-((1-(3-fluoropropyl)pyrrolidin-3-yl)oxy)phenyl)-6,7-dihydro-5H-benzo[7]annulene-3-carboxylic acid, hydrochloride], for which the “% Degradation At 0.3 μM” value is 90%.

Turning to `Cl.O=C(O)c1ccc2c(c1)CCCC(c1ccc(Cl)cc1Cl)=C2c1cccc(N[C@@H]2CCN(CCCF)C2)c1` [Compound 33, (R)-8-(2,4-dichlorophenyl)-9-(3-((1-(3-fluoropropyl)pyrrolidin-3-yl)amino)phenyl)-6,7-dihydro-5H-benzo[7]annulene-3-carboxylic acid hydrochloride], the “% Degradation At 0.3 μM” value stood at 79%.

Turning to `Cl.O=C(O)c1ccc2c(c1)CCCC(c1ccccc1Cl)=C2c1cccc(OC2CN(CCCF)C2)c1` [Compound 29, 8-(2-chlorophenyl)-9-(3-((1-(3-fluoropropyl)azetidin-3-yl)oxy)phenyl)-6,7-dihydro-5H-benzo[7]annulene-3-carboxylic acid hydrochloride], the “% Degradation At 0.3 μM” value is listed as 57%.

For `Cl.O=C(O)c1ccc2c(c1)CCCC(c1ccc(Cl)cc1Cl)=C2c1cc(O[C@@H]2CCN(CCCF)C2)ccc1F` [Compound 27, (R)-8-(2,4-dichlorophenyl)-9-(2-fluoro-5-((1-(3-fluoropropyl)pyrrolidin-3-yl)oxy)phenyl)-6,7-dihydro-5H-benzo[7]annulene-3-carboxylic acid hydrochloride], the “% Degradation At 0.3 μM” value was determined as 89%.

As to `CC1CCc2cc(C(=O)O)ccc2C(c2cccc(OC3CCN(CCCF)C3)c2)=C1c1cccc(Cl)c1` (single isomer, unassigned; isomer 2) [Compound 37], the “% Degradation At 0.3 μM” value amounted to 67%.

Regarding `Cc1cc(F)ccc1C1=C(c2cccc(O[C@@H]3CCN(CCCF)C3)c2C)c2ccc(C(=O)O)cc2CCC1` [Compound 18, (R)-8-(4-fluoro-2-methylphenyl)-9-(3-((1-(3-fluoropropyl)pyrrolidin-3-yl)oxy)-2-methylphenyl)-6,7-dihydro-5H-benzo[7]annulene-3-carboxylic acid], the “% Degradation At 0.3 μM” value was found to be 78%.

Turning to `Cl.O=C(O)c1ccc2c(c1)CCCC(c1ccccc1Cl)=C2c1cccc(O[C@@H]2CCN(CCCF)C2)c1F` [Compound 20, (R)-8-(2-chlorophenyl)-9-(2-fluoro-3-((1-(3-fluoropropyl)pyrrolidin-3-yl)oxy)phenyl)-6,7-dihydro-5H-benzo[7]annulene-3-carboxylic acid, hydrochloride], the “% Degradation At 0.3 μM” value is listed as 88%.

With `Cl.O=C(O)c1ccc2c(c1)CCCC(c1ccc(Cl)cc1Cl)=C2c1cccc(O[C@@H]2CCN(CCCF)C2)c1F` [Compound 21, (R)-8-(2,4-dichlorophenyl)-9-(2-fluoro-3-((1-(3-fluoropropyl)pyrrolidin-3-yl)oxy)phenyl)-6,7-dihydro-5H-benzo[7]annulene-3-carboxylic acid, hydrochloride], the “% Degradation At 0.3 μM” value was determined as 85%.

For the compound `CC1CCC(C2=C(c3cccc(OC4CCN(CCCF)C4)c3)c3ccc(C(=O)O)cc3CCC2)CC1` (single isomer, unassigned; isomer 1) [Compound 11], the “% Degradation At 0.3 μM” value is on record as 76%.

As to `Cl.O=C(O)c1ccc2c(c1)CCC(c1ccc(Cl)cc1Cl)=C2c1cccc(O[C@@H]2CCN(CCCF)C2)c1` [Compound 40, (R)-6-(2,4-dichlorophenyl)-5-(3-((1-(3-fluoropropyl)pyrrolidin-3-yl)oxy)phenyl)-7,8-dihydronaphthalene-2-carboxylic acid hydrochloride], the “% Degradation At 0.3 μM” value is 88%.

Take `Cc1ccc(C2=C(c3cccc(O[C@@H]4CCN(CCCF)C4)c3)c3ccc(C(=O)O)cc3CCC2)c(F)c1` [Compound 7, (R)-8-(2-fluoro-4-methylphenyl)-9-(3-((1-(3-fluoropropyl)pyrrolidin-3-yl)oxy)phenyl)-6,7-dihydro-5H-benzo[7]annulene-3-carboxylic acid]: the “% Degradation At 0.3 μM” value stood at 85%.

Take `Cl.O=C(O)c1ccc2c(c1)OCCC(c1ccc(Cl)cc1Cl)=C2c1cccc(O[C@@H]2CCN(CCCF)C2)c1` [Compound 35, (R)-4-(2,4-dichlorophenyl)-5-(3-((1-(3-fluoropropyl)pyrrolidin-3-yl)oxy)phenyl)-2,3-dihydrobenzo[b]oxepine-8-carboxylic acid hydrochloride]: the “% Degradation At 0.3 μM” value is listed as 65%.

Take `CC1CCc2cc(C(=O)O)ccc2C(c2cccc(OC3CCN(CCCF)C3)c2)=C1c1cccc(Cl)c1` (single isomer, unassigned; isomer 1) [Compound 36]: the “% Degradation At 0.3 μM” value came out at 69%.

Consider `O=C(O)c1ccc2c(c1)CCCC(c1ccc(Cl)cc1Cl)=C2c1cccc(NC2CN(CCCF)C2)c1` [Compound 32, 8-(2,4-dichlorophenyl)-9-(3-((1-(3-fluoropropyl)azetidin-3-yl)amino)phenyl)-6,7-dihydro-5H-benzo[7]annulene-3-carboxylic acid], for which the “% Degradation At 0.3 μM” value is given as 70%.

Take `Cc1c(O[C@@H]2CCN(CCCF)C2)cccc1C1=C(c2ccccc2Cl)CCCc2cc(C(=O)O)ccc21` [Compound 16, (R)-8-(2-chlorophenyl)-9-(3-((1-(3-fluoropropyl)pyrrolidin-3-yl)oxy)-2-methylphenyl)-6,7-dihydro-5H-benzo[7]annulene-3-carboxylic acid]: the “% Degradation At 0.3 μM” value was found to be 97%.
